Data published in patent publication US9707253B2, “High-loading, controlled-release magnesium oral dosage forms and methods for making and using same” (Pharmalyte Solutions, LLC, priority 2008, dated 2017).
Several values for one entry are separate records, joined by “and”; a condition that tells them apart may be missing. Equal values may be shown once.

Legend:
[1] = oral magnesium salts, background statement; cited from earlier work
[2] = healthy subjects, approximately 21 mEq, urinary excretion; cited from earlier work
[3] = normal: minimum 33.9 mEq/IU; cited from earlier work
[4] = Absolute bioavailability study: serum magnesium pharmacokinetics; settings: fasted; for AUC0-72 / AUC0-t / Cmax: mean (SD); for Tmax: median (range)
Description: (§1) A study has been conducted to investigate magnesium L-lactate dihydrate extended release caplets for management of magnesium-deficient patients who have experienced electrolyte imbalance due to iatrogenic or disease cause such as episodic migraine headaches. […] A study to compare the absolute bioavailability of an oral magnesium formulation compared to an IV administered magnesium sulfate including both serum and urine pharmacokinetic parameters has never been reported in the scientific literature.
(§2) Three treatment regimens (Treatments A, B, and C) were employed in the study.
(§3) Urine and blood samples were collected for pharmacokinetic (PK) analysis of urinary and serum magnesium concentrations. A total of 29 urine samples for each subject were collected continuously throughout the study for determination of fractional and daily urine magnesium concentrations, and 33 blood samples were collected from each subject for determination of serum magnesium concentrations at each time point during the study.
(§4) The PK analysis population included 29 subjects for Treatment A, 29 subjects for Treatment B, and 31 subjects for Treatment C.
(§5) The absolute bioavailability of magnesium was evaluated by comparing serum magnesium exposure (AUC0-72) or urinary magnesium excretion (Ae0-72) after oral versus IV administration.

[5] = Absolute bioavailability study: urinary magnesium pharmacokinetics; settings: baseline-adjusted, Treatment B: IV infusion 20 mEq over 4 hours, fasted
Description: as §1, §2, §3, §4, §5

[6] = baseline-adjusted, Treatment B: IV infusion 20 mEq over 4 hours
[7] = observed, Treatment B: IV infusion 20 mEq over 4 hours

## magnesium gluconate
[1]
  bioavailability: about 20%

## [O]=[Mg] [magnesium oxide]
[1]
  bioavailability: about 2%
[2]
  fractional absorption average: 4%

## CC(O)C(=O)[O-].CC(O)C(=O)[O-].[Mg+2] (stereo not drawn) [magnesium lactate, 2-hydroxypropanoic acid magnesium salt]
[3]
  effective in repleting intracellular magnesium levels to normal ranges: 100%

## [Cl-].[Cl-].[Mg+2] [magnesium chloride]
[1]
  bioavailability: about 20%

## O=S(=O)([O-])[O-].[Mg+2] [magnesium sulfate]
[4]; [6]
  AUC0-72: 76.2 (37.9) h · μg/mL
  AUC0-t: 72.8 (35.4) h · μg/mL
  Cmax: 6.79 (1.46) μg/mL
  Tmax: 4.00 (2.00-6.00) h
[4]; [7]
  AUC0-72: 1390 (121) h · μg/mL
  AUC0-t: 1390 (121) h · μg/mL
  Cmax: 25.7 (1.62) μg/mL
[4]; observed, Treatment B: single IV infusion 20 mEq over 4 hours
  Tmax: 4.00 (2.00-6.00) h
[5]; median (range)
  CLR0-72: 3.57 (1.44-35.6) L/h
[5]; urine, mean (SD)
  Ae0-72: 225 (49.5) mg
  Rmax: 20.5 (4.29) mg/h
  fe0-72: 92.7% and 92.7 (20.4) %
[5]; urine, median (range)
  Tmax,rate: 5.00 (3.00-9.00) h
